How the values were obtained:
[1] = tested on: 4-cholesten-3-one dehydrogenase B; test: 4-cholesten-3-one dehydrogenase B titer: coprostan-3-one produced, TLC/FID; assay type: biochemical, Eubacterium sp. CP 1; conditions: for relative activity (enzyme activity without adding inhibitor is 100): 1 mM inhibitor, 30 minutes, pH 7.5, 37° C.; for relative activity in comparison with the case of no addition: 1 mM metal salt
Protocol: (§1) An enzyme solution was allowed to stand still at 37° C. for 15 minutes using various pH buffer solutions, and remaining activity was measured, and pH range in which activity was not less than 50% of the maximum active value was regarded as a stable pH range. (The following is the same.)
With 0.2 ml of 3 mM 4-cholesten-3-one micelle solution containing 0.33% Triton X-100 is mixed 0.3 ml of a 20 mM Tris-hydrochloric acid buffer solution (pH 7.5) containing 1.0% Triton X-100and 1 mM DTT, and 0.1 ml of a10 mM NADH solution, the resulted mixture is added 0.05 ml of an enzyme solution, reacted for 30 minutes at 37° C., and then added 0.1 ml of chloroform to extract sterol and to terminate the reaction.
(§2) Then, the quantity of coprostan-3-one produced in the reaction solution is determined using TLC/FID iatroscan. The quantity of coprostan-3-one produced in the reaction solution is determined likewise using an inactivated enzyme which has been previously heated as a control. The enzyme activity which produces 1 μmol of coprostan-3-one per one minute is regarded as 1 unit.

[2] = tested on: cholesterol in meat; test: enzymatic conversion to coprostanol in aging period of meat (Embodiment 10); assay type: biochemical; conditions: minced beef, each enzyme 0.2 unit/g meat, PL-D 2 unit/g meat, 0.5 ml 20% nicotinamide, aged 7 days
Protocol: 10 g of beef 6 hours after slaughtering was made into minced meat, and to this was added the cholesterol dehydrogenase obtained in Embodiment 5 (0.2 unit/g meat), the 4-cholesten-3-one dehydrogenase obtained in Embodiment 6 (0.2 unit/g meat) and the coprostan-3-one dehydrogenase obtained in Embodiment 7 (0.2 unit/g meat) and mixed, and the mixture was aged at 5° C. for 7 days. Also, mixtures to which 0.5 ml of a 20% aqueous nicotinamide solution had been further added, meat to which phospholipase (2 unit/g meat) had been further added and meat to which both of them had been further added at the mixing were aged at […] for 7 days, respectively.
After aging, the meat was freeze-dried and lipid components were extracted with a 25 ml extraction solvent (chloroform:methanol=2:1). Regarding the resulting extracted sample, the amount of converted sterol products was determined using gas chromatography (manufactured by GL Science, TC-1701, column φ0.25 […]×30 m). In Table 5, PL-D represents phospholipase D and COP represents coprostanol, respectively.

[3] = tested on: cholesterol dehydrogenase A; test: cholesterol dehydrogenase A titer: 4-cholesten-3-one produced from cholesterol micelle, TLC/FID; assay type: biochemical, Eubacterium sp. CP 2; conditions: for relative activity (enzyme activity without adding inhibitor defined as 100): 1 mM inhibitor, 30 minutes, pH 7.5, 37° C.; for relative activity as substrate (activity of cholesterol is 100): substrate specificity; for relative activity in comparison with the case of no addition: 1 mM metal salt
Protocol: as §1
With 0.2 ml of 3 mM cholesterol micelle solution containing 0.33% Triton X-100 is mixed 0.3 ml of a 20 mM piperazine-N,N′-bis-(2-ethane […]) (hereinafter, referred to as “PIPES”) buffer solution (pH 7.5) containing 0.5% Triton X-100 and 1 mM dithiothreitol (hereinafter, referred to as “DTT”), and 0.1 ml of a 10 mM […] solution, the resulted mixture is added 0.05 ml of an enzyme solution, reacted for 30 minutes at 37° C., and then added 0.1 ml of chloroform to extract sterol and to terminate the reaction.
as §2, with “4-cholesten-3-one” for “coprostan-3-one”

[4] = tested on: 4-cholesten-3-one dehydrogenase A; test: 4-cholesten-3-one dehydrogenase A titer: coprostan-3-one produced, TLC/FID; assay type: biochemical, Eubacterium sp. CP 2; conditions: for relative activity (enzyme activity without adding inhibitor defined as 100): 1 mM inhibitor, 30 minutes, pH 7.5, 37° C.; for relative activity in comparison to the case of no addition: 1 mM metal salt; for relative activity as substrate (activity of 4-cholesten-3-one defined as 100): substrate specificity
Protocol: as §1
With 0.2 ml of 3 mM 4-cholesten-3-one micelle solution containing 0.33% Triton X-100 is mixed 0.3 ml of a 20 mM PIPES buffer solution (pH 7.5) containing 0.5% Triton X-100 and 1 mM DTT, and 0.1 ml of a 10 mM NADH solution, the resulted mixture is added 0.05 ml of an enzyme solution, and reacted for 30 minutes at 37° C., and then added 0.1 ml of chloroform to extract sterol and to terminate the reaction.
as §2

[5] = tested on: cholesterol dehydrogenase B; test: cholesterol dehydrogenase B titer: 4-cholesten-3-one produced, TLC/FID; assay type: biochemical, Eubacterium sp. CP 1; conditions: for relative activity (enzyme activity without adding inhibitor is 100): 1 mM inhibitor, 30 minutes, pH 7.5, 37° C.; for relative activity as substrate (activity of cholesterol defined as 100): substrate specificity; for relative activity in comparison to the case of no addition: 1 mM metal salt
Protocol: as §1
With 0.2 ml of 3 mM cholesterol micelle solution containing 0.33% Triton X-100 is mixed 0.3 ml of a 50 mM phosphoric acid buffer solution (pH 7.5) containing 1.0% Triton X-100 and 1 mM DTT, and 0.1 ml of a 10 mM NADP solution, to the resulted mixture is added 0.05 ml of an enzyme solution, reacted for 30 minutes at 37° C., and then added 0.1 ml of chloroform to extract sterol and to terminate the reaction.
Then, the quantity of 4-cholesten-3-one produced in the reaction solution is determined using TLC/FID iatroscan. […] The enzyme activity which produces 1 μmol of 4-cholesten-3-one per one minute is regarded as 1 unit.

[6] = tested on: coprostan-3-one dehydrogenase A; test: coprostan-3-one dehydrogenase A titer: coprostanol produced, TLC/FID; assay type: biochemical, Eubacterium sp. CP 2; conditions: for relative activity (enzyme activity without adding inhibitor defined as 100): 1 mM inhibitor, 30 minutes, pH 7.5, 37° C.; for relative activity in comparison with the case of no addition: 1 mM metal salt
Protocol: as §1
[…] The enzyme solution was mixed with equal amounts of activating fractions and left for 15 minutes at 5° C., then used.
(§3) Then, the quantity of coprostanol produced in the reaction solution is determined using TLC/FID iatroscan. The quantity of coprostanol in the reaction solution is determined likewise using an inactivated enzyme which has been previously heated as a control. The enzyme activity which produces 1 μmol of coprostanol per one minute is regarded as 1 unit.

[7] = tested on: coprostan-3-one dehydrogenase B; test: coprostan-3-one dehydrogenase B titer: coprostanol produced, TLC/FID; assay type: biochemical, Eubacterium sp. CP 1; conditions: for relative activity (enzyme activity without adding inhibitor is 100): 1 mM inhibitor, 30 minutes, pH 7.5, 37° C.; for relative activity in comparison to the case of no addition: 1 mM metal salt
Protocol: as §1
With 0.2 ml of 3 mM coprostan-3-one micelle solution containing 0.33% Triton X-100 is mixed 0.3 ml of a 20 mM Tris-hydrochloric acid buffer solution (pH 7.5) containing 1.0% Triton X-100 and 1 mM DTT, and 0.1 ml of a 10 mM NADPH solution, to the resulted mixture is added 0.05 ml of an enzyme solution, reacted for 30 minutes at 37° C., and then added 0.1 ml of chloroform to extract sterol and to terminate the reaction.
as §3

[8] = in vivo; cited from earlier work

CC(C)CCC[C@@H](C)[C@H]1CC[C@H]2[C@@H]3CC=C4CC(=O)CC[C@]4(C)[C@H]3CC[C@]12C [5-cholestenon-3-one]
relative activity as substrate (activity of 4-cholesten-3-one defined as 100) ([1]; substrate specificity): 0

NC(=O)c1cccnc1 [Nicotinamide, nicotinamide]
COP conversion (%) [2]: 0%

O=S(=O)(O)c1cc[c]([Hg][Cl])cc1 [PCMB, p-chloro mercury phenylsulfonate]
relative activity (enzyme activity without adding inhibitor defined as 100) [3]: 0
relative activity (enzyme activity without adding inhibitor defined as 100) [4]: 47
relative activity (enzyme activity without adding inhibitor is 100) [5]: 0
relative activity (enzyme activity without adding inhibitor defined as 100) [6]: 41
relative activity (enzyme activity without adding inhibitor is 100) [1]: 0
relative activity (enzyme activity without adding inhibitor is 100) [7]: 0

CC(C)[C@H](C)CC[C@@H](C)[C@H]1CC[C@H]2[C@@H]3CC=C4C[C@@H](O)CC[C@]4(C)[C@H]3CC[C@]12C [campesterol]
relative activity as substrate (activity of cholesterol is 100) [3]: 74
relative activity as substrate (activity of cholesterol defined as 100) [5]: 50

[Cl][Cu][Cl] [copper chloride]
relative activity in comparison with the case of no addition [3]: 3.2
relative activity in comparison to the case of no addition [4]: 0
relative activity in comparison to the case of no addition [5]: 0
relative activity in comparison with the case of no addition [6]: 2.7
relative activity in comparison with the case of no addition [1]: 0
relative activity in comparison to the case of no addition [7]: 0

CC(C)CCC[C@@H](C)[C@H]1CC[C@H]2[C@@H]3CC[C@@H]4C[C@@H](O)CC[C@]4(C)[C@H]3CC[C@]12C [coprostanol]
absorbability through the intestinal tract [8]: very low

NC(=O)CI [iodine acetamide]
relative activity (enzyme activity without adding inhibitor defined as 100) [3]: 82
relative activity (enzyme activity without adding inhibitor defined as 100) [4]: 94
relative activity (enzyme activity without adding inhibitor defined as 100) [6]: 82
relative activity (enzyme activity without adding inhibitor is 100) [1]: 99
relative activity (enzyme activity without adding inhibitor is 100) [7]: 95

O=C(O)CI [iodine acetic acid]
relative activity (enzyme activity without adding inhibitor is 100) [5]: 98

O=P([O-])([O-])[O-].[Na+].[Na+].[Na+] [phosphate ion, trisodium phosphate]
effect on conversion reaction by cholesterol dehydrogenase B [5]: remarkably activated

CC(=O)[C@H]1CC[C@H]2[C@@H]3CCC4=CC(=O)CC[C@]4(C)[C@H]3CC[C@]12C [progesterone]
relative activity as substrate (activity of 4-cholesten-3-one defined as 100) [4]: 41

CC[C@H](/C=C/[C@@H](C)[C@H]1CC[C@H]2[C@@H]3CC=C4C[C@@H](O)CC[C@]4(C)[C@H]3CC[C@]12C)C(C)C [stigmasterol]
relative activity as substrate (activity of cholesterol is 100) [3]: 30
relative activity as substrate (activity of cholesterol defined as 100) [5]: 39

C[C@]12CC[C@H]3[C@@H](CCC4=CC(=O)CC[C@@]43C)[C@@H]1CC[C@@H]2O [testosterone]
relative activity as substrate (activity of 4-cholesten-3-one defined as 100) [4]: 0

CC[C@H](CC[C@@H](C)[C@H]1CC[C@H]2[C@@H]3CC=C4C[C@@H](O)CC[C@]4(C)[C@H]3CC[C@]12C)C(C)C [β sitosterol]
relative activity as substrate (activity of cholesterol is 100) [3]: 38
relative activity as substrate (activity of cholesterol defined as 100) [5]: 67

iron chloride
relative activity in comparison with the case of no addition [3]: 95
relative activity in comparison to the case of no addition [4]: 110
relative activity in comparison to the case of no addition [5]: 0
relative activity in comparison with the case of no addition [6]: 12
relative activity in comparison with the case of no addition [1]: 107
relative activity in comparison to the case of no addition [7]: 105

prognerone
relative activity as substrate (activity of 4-cholesten-3-one defined as 100) [4]: 0

From patent US6485931B2, “CHOLESTEROL DEHYDROGENASE, COPROSTAN-3-ONE DEHYDROGENASE AND 4-CHOLESTEN-3-ONE DEHYDROGENASE, COMPOSITIONS CONTAINING THE DEHYDROGENASES, AND METHOD FOR REDUCING AMOUNT OF CHOLESTEROL USING THE COMPOSITIONS” (Kyowa Hakko Kogyo Co., Ltd., priority 1996, dated 2002)
